Read-outs that look alike come from different tables or passages of the source.
What was measured:
[1] = target: T1, Nav1.5^Mut sodium channel (mutated human Nav1.5) (Homo sapiens, UniProt Q14524, F1486Q/K1419C); type: cell-based
T1 construct: expressed in transfected cells; host or cells: HEK293 cells stably expressing the Cameleon (Venus/CFP) calcium biosensor; clone VC/Nav1.5 #12
Protocol: VC/Nav1.5 #12 cells were incubated with different concentrations of quinidine (FIG. 6A), sertralin (FIG. 6B) or paroxetine (FIG. 6C), and a first fluorescence reading was performed, (FVenus/FCFP)0. 25 mM Ca^2+ was added to activate the channel and a second fluorescence reading was performed, (FVenus/FCFP)ca2+. […] Error bars represent the standard deviation of experiments performed in triplicate;
The fluorescence intensity was measured using a Packard Fusion™ Universal Microplate Analyzer. 75,000 cells per well were analyzed in a bath solution containing 140 mM NaCl, 2 mM KCl, 1.5 mM CaCl2, 1 mM MgCl2, 10 mM glucose, and 10 mM Na-HEPES. For calcium measurements, the bath solution contained: 140 mM NaCl, 2 mM KCl, 25 mM CaCl2, 10 mM glucose and 10 mM Na-HEPES. The pH of the bath solutions was adjusted to pH 7.4 using 1N NaOH.
Dose-response experiments in the presence of known sodium channel blockers (quinidine, sertralin and paroxetine) were performed.

[2] = system: VC #7 control Cameleon HEK293 cell line; assay: Cameleon FRET fluorescence microplate assay in control Cameleon cell line VC #7 (does not express a sodium channel); type: cell-based, human; settings: VC #7 cell line that does not express a sodium channel; FIG. 4B
Source text: The reporter cell lines described herein are derived from the HEK293 cell line, which, in turn, is derived from human embryonic kidney. […] To generate a Nav1.5^Mut/Cameleon reporter cell line, the first step was to establish a HEK293 cell line which expresses the Cameleon calcium biosensor alone. HEK293 cells were transfected with a vector (pIREShyg3, Clonetech, Cat. No. 631620) encoding the Cameleon construct (as described in Evanko and Haydon, Cell Calcium (2005) 37: 341-348). This cell line that express the Cameleon alone was then stably transfected with the pcDNA4neo-Nav1.5^Mut expression vector (see FIG. 7A for the sequence of Nav1.5^Mut). […] The resulting cell lines were then assessed in patch-clamp for their capacity to produce robust current amplitude.
Cameleon is a fluorescent biosynthetic Ca^2+ indicator constructed by inserting a Ca^2+ sensor (Calmodulin and M13, a calmodulin-binding protein) between two mutated forms of green fluorescent protein (GFP): the energy acceptor Venus, a derivative of yellow fluorescent protein (YFP), and the energy donor, cyan fluorescent protein (CFP) (Evanko D S and Haydon P G, Cell calcium 2005, 37: 341-348). Cameleon fluorescence is affected by differences in the concentration of Ca^2+ that alter the amount of fluorescence resonance energy transfer (FRET) between CFP and Venus. […]

[3] = system: HEK293 Cameleon cell line (intracellular Ca2+); assay: Confocal microscopy FRET ratio in HEK293 cell line stably expressing the Cameleon biosensor alone; type: cell-based, human; settings: 10 μM ionomycin, ratio versus time, FIG. 3B
Protocol: FIG. 3A: Individual Venus (right panel) and CFP (left panel) fluorescence image taken with a 40× objective. FIG. 3B: Plot of FRET ratio (Venus/CFP) versus time following addition of 10 μM ionomycin;
A HEK293 cell line stably expressing the Cameleon biosensor alone was treated with ionomycin (10 μM), a calcium ionophore, to raise the intracellular level of Ca^2+, and the FRET ratio was analysed by confocal microscopy.

Fc1ccc([C@@H]2CCNC[C@H]2COc2ccc3c(c2)OCO3)cc1 [paroxetine]
Delta FRET ratio signal, (FVenus/FCFP)Ca2+/(FVenus/FCFP)0 ([1]; VC/Nav1.5 #12 cells, increasing doses of blocker, 25 mM Ca2+ added to activate the channel, compared to control cells receiving buffer only, FIG. 6): decrease in the Delta FRET ratio signal

C[C@H](CCC(=O)O)C[C@H](C)C[C@H](C)C(=O)/C=C(\O)[C@H](C)C[C@H](C)C/C=C/[C@@H](C)[C@@H](O)[C@@H](C)[C@@H](O)C[C@@H]1CC[C@@](C)([C@H]2CC[C@@](C)([C@@H](C)O)O2)O1 [ionomycin]
FRET response to treatment ([1]; VC/Nav1.5 #12 and #14 cell lines, FIG. 4B): respond
FRET response to treatment [2]: respond only to ionomycin
FRET ratio (Venus/CFP) [3]: increase in the Venus/CFP ratio

CN[C@H]1CC[C@@H](c2ccc(Cl)c(Cl)c2)c2ccccc21 [sertralin]
Delta FRET ratio signal, (FVenus/FCFP)Ca2+/(FVenus/FCFP)0 [1]: decrease in the Delta FRET ratio signal

C=C[C@H]1C[N@@]2CC[C@H]1C[C@@H]2[C@@H](O)c1ccnc2ccc(OC)cc12 [quinidine]
Delta FRET ratio signal, (FVenus/FCFP)Ca2+/(FVenus/FCFP)0 [1]: decrease in the Delta FRET ratio signal

— patent US8551693B2 (priority 2008, dated 2013)
